Data on 16 molecules can be found in PubChem BioAssay (NCI).

Among the test systems are SNB-78 CNS; HOP-18 NSCLC; SF-539 CNS; DLD-1 colon; M19-MEL melanoma; LXFL 529 NSCLC; KM20L2 colon; HL-60(TB) leukemia; DMS 114 small cell lung; DMS 273 small cell lung; XF 498 CNS; P388/ADR leukemia; P388 leukemia; SN12K1 renal; RXF-631 renal; PC-3 prostate.
Common to all, as to test: NCI tumour cell line growth inhibition, 48 h

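Briefly, cells in 96-well plates were exposed to five compound concentrations for 48 h, and endpoints were estimated by linear interpolation. Definition used: TGI = concentration required for complete inhibition of growth.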

Turning to `O=C(CSc1nnc(Cc2ccccc2)o1)Nc1ccccc1`, the TGI in the assay with SNB-78 CNS, in the assay on HOP-18 NSCLC, in the assay with SF-539 CNS, with DLD-1 colon, with M19-MEL melanoma and with LXFL 529 NSCLC was over 100 µM each time. Also, the TGI with KM20L2 colon, with HL-60(TB) leukemia, in the assay on DMS 114 small cell lung and in the assay with DMS 273 small cell lung was over 100 µM in each case.
`CC(=O)Oc1cc2c(cc1OC(C)=O)OCC(c1ccccc1)C2` (stereo not given): the TGI in the assay on SNB-78 CNS was 111 µM; in the assay on XF 498 CNS, 25.3 µM; in the assay with HOP-18 NSCLC, 63.2 µM; in the assay with P388/ADR leukemia, 11.7 µM; in the assay with P388 leukemia, 9.97 µM; in the assay with SF-539 CNS, 48.7 µM. Besides, the TGI worked out at 27.4 µM in the assay with DLD-1 colon; 45.7 µM in the assay with M19-MEL melanoma; 61.1 µM with KM20L2 colon; 9.01 µM with HL-60(TB) leukemia; 32.3 µM in the assay with DMS 114 small cell lung; 102 µM with DMS 273 small cell lung. The same molecule registered a TGI in the assay with SN12K1 renal of 38.6 µM.
On to `O=c1[nH]cc(COCCCO)c(=O)[nH]1`, for which the TGI with SNB-78 CNS, in the assay with XF 498 CNS, in the assay with HOP-18 NSCLC, in the assay with SF-539 CNS, in the assay with DLD-1 colon and with M19-MEL melanoma was over 100 µM in each case. In addition, the TGI in the assay on LXFL 529 NSCLC, with KM20L2 colon, in the assay on HL-60(TB) leukemia and with DMS 273 small cell lung was over 100 µM throughout.
Regarding `CC(=O)CN(Cc1cc(C)c2c(c1)c1ccccc1n2Cc1ccccc1)S(=O)(=O)c1ccc(C)cc1`, the TGI in the assay on SNB-78 CNS, in the assay on XF 498 CNS, in the assay on HOP-18 NSCLC, with SF-539 CNS, with DLD-1 colon and with M19-MEL melanoma was over 100 µM throughout. Besides, the TGI in the assay with LXFL 529 NSCLC, with RXF-631 renal, with HL-60(TB) leukemia, with DMS 114 small cell lung and in the assay on DMS 273 small cell lung was over 100 µM throughout.
As for `COC(=O)c1onc(-c2c(OC)cc(OC)cc2OC)c1C(=O)OC`, the TGI with SNB-78 CNS, in the assay on XF 498 CNS, in the assay on HOP-18 NSCLC, in the assay on DLD-1 colon, in the assay with M19-MEL melanoma and with LXFL 529 NSCLC was over 100 µM throughout. Moreover, the TGI with KM20L2 colon, with HL-60(TB) leukemia, with DMS 114 small cell lung and in the assay on DMS 273 small cell lung was over 100 µM throughout.
On to `CCCNC(=O)C(C)C1CCC2(C)C=CC(=O)C(C)=C2C1O` (stereo not given), for which the TGI with XF 498 CNS, with HOP-18 NSCLC, in the assay on P388/ADR leukemia, in the assay on P388 leukemia, with SF-539 CNS and with DLD-1 colon was over 100 µM in each case. Also, the TGI with M19-MEL melanoma, in the assay on KM20L2 colon, in the assay with HL-60(TB) leukemia, with DMS 114 small cell lung, with DMS 273 small cell lung and with SN12K1 renal was over 100 µM throughout.
With `CC1(C)OC(=O)C(C#N)=C1/C=C/c1coc2ccc(Cl)cc2c1=O`, the TGI was over 100 µM with SNB-78 CNS; 98 µM in the assay with DLD-1 colon; over 100 µM with M19-MEL melanoma; over 100 µM in the assay with LXFL 529 NSCLC; over 100 µM in the assay on RXF-631 renal; over 100 µM with KM20L2 colon. Also, the TGI in the assay with DMS 114 small cell lung and in the assay with DMS 273 small cell lung was over 100 µM each time.
For the molecule `C=CC1(NC(=O)c2ccccc2)CCC(C(C)(C)C)CC1` (stereo not given), the TGI in the assay on SNB-78 CNS was over 100 µM; in the assay on XF 498 CNS, over 70.6 µM; with HOP-18 NSCLC, over 95.6 µM; in the assay with P388/ADR leukemia, over 77.4 µM; in the assay with P388 leukemia, 38.4 µM; in the assay with SF-539 CNS it was over 100 µM. Moreover, the TGI with DLD-1 colon is over 100 µM; in the assay with M19-MEL melanoma, 84.4 µM; with KM20L2 colon, 39.7 µM; in the assay with HL-60(TB) leukemia it was 33 µM; with DMS 114 small cell lung, over 90.7 µM; in the assay with DMS 273 small cell lung, over 73.2 µM. The molecule also had a TGI in the assay on SN12K1 renal of over 96.7 µM.
For `c1ccc2c(c1)C1CCCCCC21N1CCOCC1` (stereo not given), the TGI with SNB-78 CNS, in the assay with SF-539 CNS, in the assay with DLD-1 colon, in the assay on M19-MEL melanoma, in the assay with LXFL 529 NSCLC and in the assay with KM20L2 colon was over 100 µM in each case. Also, the TGI with HL-60(TB) leukemia, in the assay with DMS 114 small cell lung and in the assay with DMS 273 small cell lung was over 100 µM each time.
For the molecule `COc1cccc(NC(=O)CSc2nnc(-c3ccc(NC(C)=O)cc3)o2)c1`, the TGI in the assay with SNB-78 CNS, in the assay with HOP-18 NSCLC, in the assay on DLD-1 colon, in the assay with M19-MEL melanoma, in the assay on LXFL 529 NSCLC and with KM20L2 colon was over 100 µM each time. In addition, the TGI in the assay on HL-60(TB) leukemia, in the assay on DMS 114 small cell lung and in the assay on DMS 273 small cell lung was over 100 µM each time.
As to `C/C=C1\CN2CCc3c([nH]c4ccccc34)C2CC1C(=O)OC` (stereo not given), the TGI in the assay on XF 498 CNS was over 322 µM; with SF-539 CNS, over 322 µM; with DLD-1 colon it was over 322 µM; with LXFL 529 NSCLC it was over 322 µM; in the assay with KM20L2 colon, over 322 µM; in the assay on HL-60(TB) leukemia it was over 32.2 µM. In the assay on DMS 273 small cell lung, this molecule came in with a TGI of over 322 µM.
On to `O=C(CCl)NNC1=Nc2ccc(Cl)cc2SC1`, for which the TGI in the assay with SNB-78 CNS came out at 4.51 µM; in the assay on XF 498 CNS, 3.92 µM; with HOP-18 NSCLC, 3.36 µM; in the assay on P388/ADR leukemia, 3.52 µM; with P388 leukemia it was 1.07 µM; with SF-539 CNS, 3.77 µM. Also, the TGI in the assay with DLD-1 colon was 3.6 µM; in the assay with M19-MEL melanoma, 5.46 µM; with KM20L2 colon it was 9.18 µM; in the assay with HL-60(TB) leukemia, 3.3 µM; with DMS 114 small cell lung, 3.86 µM; in the assay with DMS 273 small cell lung it was 8.29 µM. Besides, the TGI in the assay on SN12K1 renal amounted to 7.94 µM.
With `O=C(O)c1ccc(C2COc3ccc(Cl)cc3C2)cc1` (stereo not given), the TGI in the assay on SNB-78 CNS, with XF 498 CNS, in the assay with HOP-18 NSCLC, in the assay with SF-539 CNS, in the assay with DLD-1 colon and in the assay with M19-MEL melanoma was over 100 µM throughout. In addition, the TGI in the assay with LXFL 529 NSCLC, in the assay on KM20L2 colon, with HL-60(TB) leukemia, in the assay with DMS 114 small cell lung and with DMS 273 small cell lung was over 100 µM throughout.
Turning to `COc1cc2c(c(OC)c1)/C(=C/Sc1ccccc1)C(=O)N(C(C)(C)C)C2`, the values for the TGI in the assay on SF-539 CNS, in the assay on PC-3 prostate and with HL-60(TB) leukemia were over 100 µM, over 100 µM and 59.9 µM, respectively.
In the case of `Cc1ccc(NC(Nc2ccc(C)cc2C)=C(/C=C(\Cl)[N+](=O)[O-])[N+](=O)[O-])c(C)c1`, the TGI in the assay with SF-539 CNS turned out to be 23.3 µM; in the assay with PC-3 prostate it was 17.2 µM; in the assay on HL-60(TB) leukemia it was 2.6 µM.
On to `CC(=O)c1ccc2c(c1)CC1(C2)Cc2cc3c(cc2C1=O)CCC3` (stereo not given), for which the TGI in the assay with SF-539 CNS was found to be 72.4 µM; in the assay on PC-3 prostate it was 72.2 µM; with HL-60(TB) leukemia, 35.8 µM.
